The values that follow come from patent US20040087561A1, “Treatment of sexual dysfunction” (priority 2000, published 2004).

One test deals with T1, human GRP receptor (BB2) (Homo sapiens, UniProt P30550).
T1 construct: expressed in transfected cells; host or cells: CHO-K1
Description: BB2 binding assay ([125I][Tyr4]bombesin, CHO-K1 cell membranes). On the procedure: (§1) In the following experiments, measurement of BB1 and BB2 binding was as follows. CHO-K1 cells stably expressing cloned human NMB (for (BB1 assay) and GRP receptors (for BB2 assay) were routinely grown in Ham's F12 culture medium supplemented with 10% foetal calf serum and 2 mM glutamine. For binding experiments, cells were harvested by trypsinization, and stored frozen at −70° C. in Ham's F12 culture medium containing 5% DMSO until required. On the day of use, cells were thawed rapidly, diluted with an excess of culture medium, and centrifuged for 5 minutes at 2000 g. Cells were resuspended in 50 mM Tris-HCl assay buffer (pH 7.4 at 21° C., containing 0.02% BSA, 40 μg/mL bacitracin, 2 μg/mL chymostatin, 4 μg/mL leupeptin, and 2 μM phosphoramidon), counted, and polytronned (setting 5, 10 sec) before centrifuging for 10 minutes at 28,000 g. The final pellet was resuspended in assay buffer to a final cell concentration of 1.5×10^5/mL. For binding assays, 200 μL aliquots of membranes were incubated with [^125I][Tyr^4]bombesin (<0.1 nM) in the presence and absence of test compounds (final assay volume 250 μL) for 60 minutes and 90 minutes for NMB and GRP receptors, respectively. Nonspecific binding was defined by 1 μM bombesin. Assays were terminated by rapid filtration under vacuum onto Whatman GF/C filters presoaked in 0.2% PEI for >2 hours, and washed 50 mM Tris-HC (pH 6.9 at 21° C.; 6×1 mL). Radioactivity bound was determined using a gamma counter.
(§2) All competition data was analysed using nonlinear regression utilizing iterative curve-plotting procedures in Prism® (GraphPad Software Inc., San Diego, USA). IC50 values were corrected to Ki values using the Cheng-Prusoff equation (Cheng Y., PrusoffW. H., Biochem. Pharmacol. 22: 3099-3108, 1973).

The target of the next test is T2, human NMB receptor (BB1) (Homo sapiens, UniProt P28336).
T2 construct: expressed in transfected cells; host or cells: CHO-K1
Description: BB1 binding assay ([125I][Tyr4]bombesin, CHO-K1 cell membranes). On the procedure:
as §1, §2

Another test deals with conscious male rat. In words: Penile intracavernosal pressure in the conscious male rat (telemetry). It is filed as in vivo. On the procedure: In addition to treating women with FSD, bombesin antagonists will be useful in treating male erectile dysfunction (MED. Both the non-selective BB1/2 antagonists (Compound 1; 10 mg/kg sc) and the selective BB I receptor antagonist (Compound 3; 15 mg/kg sc) is pro-erectile in a conscious rat model of penile erection (FIGS. 24 and 25). Erectile responses were recorded by measuring intracavemosal pressure using surgically implanted telemetric device. The specific details the surgical procedures, data acquisition and analysis can be found in detail in Bernabe 1999.
Compound 1 and compound 3 were dissolved in 50% O-cyclodextrin in saline. They were administered at a dose of 15 mg/kg subcutaneously (sc). […] These increases equate to penile erection. Both Compounds 1 and 3 induced a number of erections in a similar manner to those observed with apomorphine or melanotan-II—both of which are clinically proven agents that are effective in the treatment of MED. Moreover the amplitude of the increases observed were similar to those observed with apomorphine or melanotan-II. The mechanism of action is thought to be similar to the effects on female genital flow ie CNS potentiation of the descending neuronal pathways that control penile erection.

The test system of test [1] is Female New Zealand rabbits. Description: Pelvic nerve-stimulated female genital blood flow, anaesthetised rabbit model of sexual arousal. It is filed as in vivo. Particulars: 15 mg/kg sc. On the procedure:
(§3) Female New Zealand rabbits (2.5 kg) were pre-medicated with a combination of Medetomidine (Domitor®) 0.5 ml/kg im., and Ketamine (Vetalar®) 0.25 ml/kg i.m. whilst maintaining oxygen intake via a face mask. The rabbits were tracheotomised using a Portex™ uncuffed endotracheal tube 3 ID., connected to ventilator and maintained at a ventilation rate of 30-40 breaths per minute, with an approximate tidal volume of 18-20 ml, and a maximum airway pressure of 10 cm H2O. Anaesthesia was then switched to Isoflurane and ventilation continued with O2 at 2 l/min. The right marginal ear vein was cannulated using a 23G or 24G catheter, and Lactated Ringer solution perfused at 0.5 ml/min. The rabbit was maintained at 3% Isoflurane during invasive surgery, dropping to 2% for maintenance anaesthesia.
The left groin area of the rabbit was shaved and a vertical incision was made approximately 5 cm in length along the thigh. […] Systolic and diastolic pressures were measured, and the mean arterial pressure calculated using the formula (diastolic ×2+systolic)÷3. Heart rate was measured via the pulse oxymeter and Po-ne-mah data acquisition software system (Ponemah Physiology Platform, Gould Instrument Systems Inc). […] A frequency response curve was determined at the start of each experiment in order to determine the optimum frequency to use as a sub-maximal response, normally 4 Hz. […]

The subject of a further test is Male New Zealand rabbits. Description: Pelvic nerve-stimulated penile intracavernosal pressure, anaesthetised rabbit model of erection. It counts as in vivo. Particulars: Compound 3 (10 mg/kg sc) concomitant with selective PDE5 inhibitor (1 mg/kg iv), compared with same dose of Compound 3 alone. On the procedure:
as §3, with “Male” for “Female”, “(˜2.5” for “(2.5”, “i.m.,” for “im.,”, “anaesthesia. The left jugular vein was exposed, isolated and then cannulated with a PVC catheter (17G) for the infusion of drugs and compounds.” for “anaesthesia.”
The left groin area of the rabbit was shaved and a vertical incision was made approximately 5 cm in length along the thigh. […] Systolic and diastolic pressures were measured, and the mean arterial pressure calculated using the formula (diastolic ×2+systolic)[…]. Heart rate was measured via the pulse oxymeter and Po-ne-mah data acquisition software system (Ponemah Physiology Platform, Gould Instrument Systems Inc). […]

T1 sequence (P30550 whole entry): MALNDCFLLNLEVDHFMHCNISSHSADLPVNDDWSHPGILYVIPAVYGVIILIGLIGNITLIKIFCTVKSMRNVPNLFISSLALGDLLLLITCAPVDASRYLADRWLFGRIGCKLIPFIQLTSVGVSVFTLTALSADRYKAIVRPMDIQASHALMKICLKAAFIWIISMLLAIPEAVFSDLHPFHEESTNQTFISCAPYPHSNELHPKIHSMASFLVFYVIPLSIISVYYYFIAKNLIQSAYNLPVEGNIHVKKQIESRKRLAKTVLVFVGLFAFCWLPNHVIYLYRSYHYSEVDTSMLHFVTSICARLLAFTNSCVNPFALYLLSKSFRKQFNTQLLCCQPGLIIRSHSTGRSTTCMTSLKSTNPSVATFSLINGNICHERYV
T2 sequence (P28336 whole entry): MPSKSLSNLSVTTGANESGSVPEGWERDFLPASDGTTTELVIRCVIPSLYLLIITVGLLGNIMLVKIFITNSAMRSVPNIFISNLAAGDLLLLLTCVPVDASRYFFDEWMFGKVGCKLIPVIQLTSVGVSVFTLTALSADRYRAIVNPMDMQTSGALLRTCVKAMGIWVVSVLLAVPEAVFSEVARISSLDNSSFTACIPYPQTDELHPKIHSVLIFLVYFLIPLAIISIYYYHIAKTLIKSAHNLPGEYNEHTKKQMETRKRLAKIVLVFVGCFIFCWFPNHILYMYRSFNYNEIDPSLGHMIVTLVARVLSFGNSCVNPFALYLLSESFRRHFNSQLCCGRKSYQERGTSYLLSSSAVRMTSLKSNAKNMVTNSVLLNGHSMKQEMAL

Turning to `C[C@@](Cc1c[nH]c2ccccc12)(NS(=O)(=O)c1cccc(C(F)(F)F)c1)C(=O)NCC1(c2ccccn2)CCCCC1` [Example 124], the half-inhibitory concentration (IC50) is 2250 nM on human GRP receptor (BB2) and 440 nM at human NMB receptor (BB1).
In the case of `C[C@@](Cc1c[nH]c2ccccc12)(NS(=O)(=O)c1ccc(F)c(Cl)c1)C(=O)NCC1(c2ccccn2)CCCCC1` [Example 156], the concentration for half-maximal inhibition (IC50) on human GRP receptor (BB2) was 1220 nM; on human NMB receptor (BB1), 284 nM.
For `C[C@@](Cc1c[nH]c2ccccc12)(NS(=O)(=O)c1cccc([N+](=O)[O-])c1)C(=O)NCC1(c2ccccn2)CCCCC1` [Example 121], in that order: 1960 nM and 208 nM.
On to `C[C@@](Cc1c[nH]c2ccccc12)(NC(=O)Nc1ccc([N+](=O)[O-])cc1)C(=O)NCC1(c2ccc(N)cc2)CCCCC1` [Compound 3, (2S)-N-{[1-(4-aminophenyl)cyclohexyl]methyl}-3-(1H-indol-3-yl)-2-methyl-2-{[(4-nitroanilino)carbonyl]amino}propanamide], for which the “penile erection (erectile response)” value in the test on conscious male rat (Compound 1 10 mg/kg sc, Compound 3 15 mg/kg sc, conscious rat model) is “pro-erectile”. Besides, in the test with conscious male rat (one hour after 10 mg/kg sc Compound 1, 45 minutes after 15 mg/kg sc compound 3, conscious rat), the intracavernosal pressure entry is listed as “significant increases in intracavernosal pressure”. For the same compound, in test [1], the “pelvic-nerve stimulated (PNS) increases in genital (vaginal and clitoral) blood flow” value is given as “potent enhancer”. The “pelvic nerve-stimulated intracavernosal pressure (ICP), combination with PDE5 inhibitor” value in the test on Male New Zealand rabbits is listed as “marked enhancement”.

What is called IC50 is the midpoint of a concentration-inhibition curve.
